PubChem BioAssay AID256 (DTP/NCI, 2004)
Where “and” joins values, the source holds several entries; their conditions need not be identical. Equal entries are not always repeated. Inconclusive results and toxic doses are left out. Rule for the calls: active = survival T/C of 150% or more; inactive = T/C below 125% in these data.

Tested on: CD2F1 mice, L1210 leukemia ip, survival T/C
Test: NCI In Vivo Anticancer Drug Screen. Data for tumor model L1210 Leukemia (intraperitoneal) in CD2F1 (CDF1) mice
Conditions: higher = longer survival
In short: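 Activity against a transplanted murine tumor was judged by comparing the compound group with a vehicle group. The outcome in the treated animals was divided by that in the controls.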

[1] = endpoint: mean survival time, dose: 100.0 mg/kg/injection, schedule: Q01DX001 (ip), vehicle: Klucel (hydroxypropylcellulose) (HPC)
[2] = endpoint: mean survival time, dose: 200.0 mg/kg/injection, schedule: Q01DX001 (ip), vehicle: Klucel (hydroxypropylcellulose) (HPC)
[3] = endpoint: mean survival time, dose: 400.0 mg/kg/injection, schedule: Q01DX001 (ip), vehicle: Klucel (hydroxypropylcellulose) (HPC)
[4] = endpoint: mean survival time, dose: 12.5 mg/kg/injection, schedule: Q01DX009 (ip), vehicle: saline with Tween-80
[5] = endpoint: mean survival time, dose: 12.5 mg/kg/injection, schedule: Q01DX009 (ip), vehicle: saline
[6] = endpoint: mean survival time, dose: 25.0 mg/kg/injection, schedule: Q01DX009 (ip), vehicle: saline with Tween-80
[7] = endpoint: mean survival time, dose: 50.0 mg/kg/injection, schedule: Q01DX009 (ip), vehicle: saline with Tween-80
[8] = endpoint: mean survival time, dose: 50.0 mg/kg/injection, schedule: Q01DX009 (ip), vehicle: saline
[9] = endpoint: mean survival time, dose: 100.0 mg/kg/injection, schedule: Q01DX009 (ip), vehicle: saline with Tween-80
[10] = endpoint: mean survival time, dose: 100.0 mg/kg/injection, schedule: Q01DX001 (ip), vehicle: saline with Tween-80
[11] = endpoint: mean survival time, dose: 200.0 mg/kg/injection, schedule: Q01DX001 (ip), vehicle: saline with Tween-80
[12] = endpoint: mean survival time, dose: 200.0 mg/kg/injection, schedule: Q01DX009 (ip), vehicle: saline with Tween-80
[13] = endpoint: mean survival time, dose: 400.0 mg/kg/injection, schedule: Q01DX001 (ip), vehicle: saline with Tween-80
[14] = endpoint: mean survival time, dose: 400.0 mg/kg/injection, schedule: Q01DX009 (ip), vehicle: saline with Tween-80
[15] = endpoint: mean survival time, dose: 100.0 mg/kg/injection, schedule: Q04DX002 (ip), vehicle: saline with Tween-80
[16] = endpoint: mean survival time, dose: 200.0 mg/kg/injection, schedule: Q04DX002 (ip), vehicle: saline with Tween-80
[17] = endpoint: mean survival time, dose: 400.0 mg/kg/injection, schedule: Q04DX002 (ip), vehicle: saline with Tween-80

Measured: T/C

CC(=O)Nc1cccc(/C=C/c2cccc([N+](=O)[O-])c2)c1
inactive: [1] 103 % of control | [2] 93 % of control | [3] 100 % of control

CCN(CC)CCC(=O)c1ccccc1
inactive: endpoint: mean survival time, dose: 3.12 mg/kg/injection, schedule: Q01DX009 (ip), vehicle: saline with Tween-80 100 % of control | endpoint: mean survival time, dose: 3.12 mg/kg/injection, schedule: Q01DX009 (ip), vehicle: suspension in saline 96 % of control | endpoint: mean survival time, dose: 6.25 mg/kg/injection, schedule: Q01DX009 (ip), vehicle: saline with Tween-80 103 % of control | endpoint: mean survival time, dose: 6.25 mg/kg/injection, schedule: Q01DX009 (ip), vehicle: suspension in saline 95 % of control | [4] 102 % of control | [5] 90 % of control | endpoint: mean survival time, dose: 12.5 mg/kg/injection, schedule: Q01DX009 (ip), vehicle: suspension in saline 96 % of control | [6] 103 % of control | endpoint: mean survival time, dose: 25.0 mg/kg/injection, schedule: Q01DX009 (ip), vehicle: saline 94 % of control | endpoint: mean survival time, dose: 25.0 mg/kg/injection, schedule: Q01DX009 (ip), vehicle: suspension in saline 106 % of control | [7] 101 % of control | [8] 92 % of control | endpoint: mean survival time, dose: 50.0 mg/kg/injection, schedule: Q01DX009 (ip), vehicle: suspension in saline 106 % of control | [9] 93 % of control

[CH3][Sn]([CH3])([Br])[CH2]CCCBr
inactive: endpoint: mean survival time, dose: 0.39 mg/kg/injection, schedule: Q01DX009 (ip), vehicle: saline 90 % of control | endpoint: mean survival time, dose: 0.78 mg/kg/injection, schedule: Q01DX009 (ip), vehicle: saline 94 % of control | endpoint: mean survival time, dose: 1.56 mg/kg/injection, schedule: Q01DX009 (ip), vehicle: saline 92 % of control | endpoint: mean survival time, dose: 6.25 mg/kg/injection, schedule: Q01DX009 (ip), vehicle: saline 98 % of control | [5] 91 % of control

CC(=O)NC(CO)C(O)c1ccc(N)cc1 (centres undefined)
inactive: [10] 97 % of control | [9] 102 % of control | [11] 101 % of control | [12] 96 % of control | [13] 104 % of control | [14] 96 % of control

Cc1ccc(S(=O)(=O)Nc2ccccc2SSc2ccccc2NS(=O)(=O)c2ccc(C)cc2)cc1
inactive: [1] 96 % of control | [2] 96 % of control | [3] 90 % of control

O=C(Nc1nncs1)c1ccncc1
inactive: [4] 95 % of control and 112 % of control | [6] 115 % of control and 92 % of control | [7] 103 % of control | [12] 123 % of control and 94 % of control | [14] 110 % of control

C/C=C/c1cnc(N)nc1-c1ccccc1
inactive: [15] 101 % of control | [16] 96 % of control | [17] 96 % of control

Nc1nc(N)nc(-c2ccccn2)n1
inactive: [8] 112 % of control

COc1ccc2c(c1)N(CCC1CCCCN1C)c1ccccc1S2 (centres undefined)
inactive: endpoint: mean survival time, dose: 6.25 mg/kg/injection, schedule: Q04DX003 (ip), vehicle: saline 93 % of control and 100 % of control | endpoint: mean survival time, dose: 12.5 mg/kg/injection, schedule: Q04DX003 (ip), vehicle: Klucel (hydroxypropylcellulose) (HPC) 97 % of control | endpoint: mean survival time, dose: 12.5 mg/kg/injection, schedule: Q04DX003 (ip), vehicle: saline 98 % of control and 100 % of control | endpoint: mean survival time, dose: 25.0 mg/kg/injection, schedule: Q04DX003 (ip), vehicle: Klucel (hydroxypropylcellulose) (HPC) 95 % of control | endpoint: mean survival time, dose: 25.0 mg/kg/injection, schedule: Q04DX003 (ip), vehicle: saline 101 % of control and 102 % of control | endpoint: mean survival time, dose: 50.0 mg/kg/injection, schedule: Q04DX003 (ip), vehicle: Klucel (hydroxypropylcellulose) (HPC) 97 % of control | endpoint: mean survival time, dose: 50.0 mg/kg/injection, schedule: Q04DX003 (ip), vehicle: saline 106 % of control | endpoint: mean survival time, dose: 100.0 mg/kg/injection, schedule: Q04DX003 (ip), vehicle: Klucel (hydroxypropylcellulose) (HPC) 103 % of control

NC(=O)Oc1cccc(OC(N)=O)c1
inactive: endpoint: mean survival time, dose: 25.0 mg/kg/injection, schedule: Q01DX009 (ip), vehicle: water 95 % of control | endpoint: mean survival time, dose: 50.0 mg/kg/injection, schedule: Q01DX009 (ip), vehicle: water 106 % of control | endpoint: mean survival time, dose: 100.0 mg/kg/injection, schedule: Q01DX009 (ip), vehicle: water 106 % of control | endpoint: mean survival time, dose: 200.0 mg/kg/injection, schedule: Q01DX009 (ip), vehicle: water 104 % of control | endpoint: mean survival time, dose: 400.0 mg/kg/injection, schedule: Q01DX009 (ip), vehicle: water 106 % of control

Cc1ccc(C)c(NC(=O)Oc2ccc(F)cc2)c1
inactive: [10] 96 % of control | [9] 94 % of control and 97 % of control | [11] 86 % of control | [12] 101 % of control | [13] 92 % of control | [14] 93 % of control and 103 % of control

O=c1cc(-c2ccccc2)[nH]c(=S)[nH]1
inactive: [10] 115 % of control | [11] 102 % of control | [13] 97 % of control

O=c1c2ccccc2nnn1OCc1ccccc1
inactive: endpoint: mean survival time, dose: 12.5 mg/kg/injection, schedule: Q01DX001 (ip), vehicle: distilled water + Tween-80 104 % of control | endpoint: mean survival time, dose: 25.0 mg/kg/injection, schedule: Q01DX001 (ip), vehicle: distilled water + Tween-80 90 % of control | endpoint: mean survival time, dose: 50.0 mg/kg/injection, schedule: Q01DX001 (ip), vehicle: distilled water + Tween-80 92 % of control | endpoint: mean survival time, dose: 100.0 mg/kg/injection, schedule: Q01DX001 (ip), vehicle: distilled water + Tween-80 90 % of control | endpoint: mean survival time, dose: 200.0 mg/kg/injection, schedule: Q01DX001 (ip), vehicle: distilled water + Tween-80 88 % of control

CCNC(=O)Nc1nc2ccccc2[nH]1
inactive: [7] 101 % of control

Cc1ccc(C2=CSC3=NCCN23)cc1Cl
inactive: endpoint: median survival time, dose: 6.25 mg/kg/injection, schedule: Q01DX005 (ip), vehicle: saline 116 % of control | endpoint: median survival time, dose: 12.5 mg/kg/injection, schedule: Q01DX005 (ip), vehicle: saline 108 % of control | endpoint: median survival time, dose: 25.0 mg/kg/injection, schedule: Q01DX005 (ip), vehicle: saline 109 % of control | endpoint: median survival time, dose: 50.0 mg/kg/injection, schedule: Q01DX005 (ip), vehicle: saline 100 % of control

Cc1[nH]c(=S)[nH]c(=O)c1Cc1c(O)ccc2ccccc12
inactive: endpoint: mean survival time, dose: 100.0 mg/kg/injection, schedule: Q01DX001 (ip), vehicle: saline 97 % of control | endpoint: mean survival time, dose: 200.0 mg/kg/injection, schedule: Q01DX001 (ip), vehicle: saline 100 % of control | endpoint: mean survival time, dose: 400.0 mg/kg/injection, schedule: Q01DX001 (ip), vehicle: saline 103 % of control

COc1ccc(COC(=O)Nc2ccc([N+](=O)[O-])cc2)cc1
inactive: [15] 96 % of control | [16] 96 % of control | [17] 96 % of control

O=C(Nc1ccc2c3c(cccc13)CC2)c1cccc([N+](=O)[O-])c1
inactive: [9] 94 % of control | [12] 95 % of control | [14] 97 % of control

C=C(C)COc1cc(C=NCCCC)c(C)cc1C
inactive: [9] 98 % of control | [12] 94 % of control | [14] 96 % of control

Cc1cccc(CNc2ccc(S(=O)(=O)c3ccc(NCc4cccc(C)n4)cc3)cc2)n1
inactive: endpoint: mean survival time, dose: 100.0 mg/kg/injection, schedule: Q04DX003 (ip), vehicle: saline 97 % of control | endpoint: mean survival time, dose: 200.0 mg/kg/injection, schedule: Q04DX003 (ip), vehicle: saline 112 % of control | endpoint: mean survival time, dose: 400.0 mg/kg/injection, schedule: Q04DX003 (ip), vehicle: saline 93 % of control

CCCCCCCCNCCNCCCCCCCC
inactive: endpoint: mean survival time, dose: 3.75 mg/kg/injection, schedule: Q01DX009 (ip), vehicle: Klucel (hydroxypropylcellulose) (HPC) 95 % of control | endpoint: mean survival time, dose: 7.5 mg/kg/injection, schedule: Q01DX009 (ip), vehicle: Klucel (hydroxypropylcellulose) (HPC) 95 % of control | endpoint: mean survival time, dose: 15.0 mg/kg/injection, schedule: Q01DX009 (ip), vehicle: Klucel (hydroxypropylcellulose) (HPC) 87 % of control

O=C(CC1(O)C(=O)Nc2ccccc21)c1c[nH]c2ccccc12 (centres undefined)
inactive: [7] 95 % of control | [9] 98 % of control | [12] 91 % of control

Nc1cccnc1
inactive: endpoint: mean survival time, dose: 5.0 mg/kg/injection, schedule: Q04DX003 (ip), vehicle: saline 92 % of control | endpoint: mean survival time, dose: 10.0 mg/kg/injection, schedule: Q04DX003 (ip), vehicle: saline 94 % of control | endpoint: mean survival time, dose: 20.0 mg/kg/injection, schedule: Q04DX003 (ip), vehicle: saline 94 % of control

O=C1OC(=O)c2c1ccc1c(O)cccc21
inactive: [10] 101 % of control | [11] 90 % of control | [13] 108 % of control
